Reference: patent publication US20220146526A1, “METHOD FOR EVALUATING SAMPLE, ANALYSIS METHOD, METHOD FOR DETECTING DEGRADED SAMPLE, MARKER FOR DETECTING DEGRADED BLOOD PLASMA SAMPLE, AND MARKER FOR DETECTING DEGRADED SERUM SAMPLE” (SHIMADZU CORPORATION, priority 2019, published 2022)
“Also recorded” adds a separate entry of the source. Each block holds one molecule with its values, some of them ahead of it.

What was measured:
Assay type in all cases: physicochemical, human
[1] = GC/MS of blood plasma sample: time from blood collection to centrifugation (Table A)
Method: (§1) At room temperature, 5 mL of blood from a healthy subject was taken into a blood-collecting vessel containing EDTA, and the blood-collecting vessel was inverted for mixing, then cooled, and allowed to stand at 4° C. Here, in order to investigate how the detection intensity of molecules contained in the sample was affected in a case where the time to cooling was set to 5 minutes or more as compared to that in a case where the time to cooling was set to 1 minute or less, preparations were performed under both the former condition and the latter condition. After standing, the blood sample was subjected to centrifugation under a condition of 4° C., 3000 rpm, and 15 minutes. […] After centrifugation, the blood-collecting vessel was left to stand at room temperature for 30 minutes, and the blood plasma was isolated during this 30 minutes. The obtained blood plasma sample was frozen and stored. Here, in order to investigate how the detection intensity of molecules contained in the sample was affected in cases where freezing and thawing was performed 4 times, 6 times, and 10 times after freezing as compared to that in a case where freezing and thawing was performed 2 times after freezing, freezing and thawing was performed under the respective conditions of 2, 4, 6, and 10 times.
(§2) Frozen blood plasma samples and serum samples were subjected to GC/MS or LC/MS. In GC/MS, the blood plasma samples and serum samples were subjected to methoxymation and trimethylsilylation and then introduced to GC-MS.
(§3) GC/MS was conducted using GCMS·TQ8040 (Shimadzu Corporation) that was a GC·MS equipped with AOC·20i (Shimadzu Corporation) as an autosampler.
(§4) Column: BPX5 (inner diameter of 0.25 mm, length of 30 m, and film thickness of 0.25 μm) (SGE)
(§5) Column temperature: maintained at 60° C. for 2 minutes, then raised at 15° C./min, and maintained at 330° C. for 3 minutes.
(§6) Inlet temperature: 250° C.
(§7) Carrier gas control mode: constant linear velocity of 39.0 cm/sec
(§8) Sample introduction method: split (split ratio of 30:1) Injection volume: 1 μL
(§9) Ionization method: electron ionization
(§10) Ionization current: 60 μA
(§11) Interface temperature: 280° C.
(§12) Ion source temperature: 200° C.
(§13) Mode: multiple reaction monitoring (MRM)
The rate of increase or decrease in Table A is the value of detection intensity relative to 1 that is the detection intensity in a case where the time from blood collection to centrifugation is set to 15 minutes.

[2] = GC/MS of blood plasma sample: time from blood collection to cooling of blood (Table B); design: key to Rate of increase or decrease / Rate of increase or decrease (first value, increase): detection intensity relative to 1 at cooling time ≤1 min; settings: for Rate of increase or decrease: detection intensity relative to 1 at 1 minute or less, blood collection to cooling 5 minutes; for Increase or decrease: detection intensity, blood collection to cooling 5 minutes or more vs 1 minute or less
Method: as §1, §2, §3, §4, §5, §6, §7, §8, §9, §10, §11, §12, §13
Table B presents compounds of which the detection intensity increased or decreased by 30% or more in a case where the time from blood collection to cooling of blood, when a blood plasma sample was analyzed by GC/MS, was set to 5 minutes or more as compared to that in a case where the time was set to 1 minute or less. The rate of increase or decrease in Table B is the value of detection intensity relative to 1 that is the detection intensity in a case where the time from blood collection to cooling is set to 1 minute or less.

[3] = GC/MS of serum sample: number of times of freezing and thawing (Table I); design: key to Rate of increase or decrease / Rate of increase or decrease (first value, increase): detection intensity relative to 2 freeze-thaw cycles = 1; settings: for Rate of increase or decrease: detection intensity relative to 1 at 2 times
In short: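 Serum was isolated after centrifugation at room temperature (3500 rpm, 5 min), frozen, and put through 2, 4, 6 or 10 freeze–thaw cycles. Samples were methoxymated and trimethylsilylated, then run by electron-ionization GC/MS in MRM mode on a BPX5 column (60 to 330 °C). Detection intensity is given relative to the 2-cycle sample, set as 1.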

[4] = LC/MS of serum sample: time from blood collection to centrifugation (Table J)
Method: After standing, the blood sample was subjected to centrifugation under a condition of room temperature, 3500 rpm, and 5 minutes. […] After centrifugation, the blood-collecting vessel was left to stand at room temperature, and the serum was isolated during this time. Here, in order to investigate how the detection intensity of molecules contained in the sample was affected in cases where the time during which the blood-collecting vessel was left at room temperature was set to 1 hour and 6 hours as compared to that in a case where the time was set to 30 minutes, preparations were performed under the respective conditions of 30 minutes, 1 hour, and 6 hours. The obtained serum sample was frozen and stored. Here, in order to investigate how the detection intensity of molecules contained in the sample was affected in cases where freezing and thawing was performed 4 times, 6 times, and 10 times after freezing as compared to that in a case where freezing and thawing was performed 2 times after freezing, freezing and thawing was performed under the respective conditions of 2, 4, 6, and 10 times.
as §2
(§14) Analysis column: Discovery HS F5-3 (inner diameter of 2.1 mm, length of 150 mm, film thickness of 3 μm) (Sigma-Aldrich)
(§15) Column temperature: 40° C.
(§16) (A) 0.1% formic acid (dissolved in water)
(§17) (B) 0.1% formic acid (dissolved in acetonitrile)
(§18) Flow velocity: 0.25 mL/min
(§19) Ionization method: electrospray
(§20) Temperature: • Desolvation Line (DL) temperature: 250° C. • Heat block temperature: 400° C. • Interface temperature: 300° C.
(§21) Gas flow rate: • Nebulizer gas flow rate: 3.0 L/min • Drying gas flow rate: 10.0 L/min • Heating gas flow rate: 10.0 L/min
as §13
The rate of increase or decrease in Table J is the value of detection intensity relative to 1 that is the detection intensity in a case where the time from blood collection to centrifugation is set to 15 minutes.

[5] = LC/MS of serum sample: number of times of freezing and thawing (Table M); design: key to Rate of increase or decrease: detection intensity relative to 1 at 2 freeze-thaw cycles
In short: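 Serum was isolated at room temperature after centrifugation at room temperature, 3500 rpm, 5 minutes, then frozen and freeze-thawed 2, 4, 6 or 10 times. LC/MS used a Discovery HS F5-3 column at 40° C with formic acid water/acetonitrile, electrospray MRM. Intensity is relative to 2 freeze-thaw cycles.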

[6] = LC/MS of blood plasma sample: number of times of freezing and thawing (Table F)
Method: as §1, §2, §14, §15, §16, §17, §18, §19, §20, §21, §13
The rate of increase or decrease in Table F is the value of detection intensity relative to 1 that is the detection intensity in a case where the number of times of freezing and thawing is set to 2 times.

[7] = LC/MS of blood plasma sample: time from blood collection to centrifugation (Table D); settings: blood collection to centrifugation
In short: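 Healthy-subject blood (5 mL, EDTA) cooled and held at 4 °C before centrifugation (4 °C, 3000 rpm, 15 min), with plasma then frozen. LC/MS on Discovery HS F5-3 column at 40 °C, 0.1% formic acid water/acetonitrile, 0.25 mL/min, electrospray, MRM; intensities relative to 15 min collection-to-centrifugation set as 1.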

[8] = GC/MS of serum sample: time from centrifugation to isolation (Table H); design: key to Rate of increase or decrease / Rate of increase or decrease (first value, increase): detection intensity relative to 1 at 30 min centrifugation-to-isolation
In short: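 Blood was centrifuged at room temperature, 3500 rpm, 5 min, and the vessel left at room temperature for 30 min, 1 h or 6 h before serum isolation. Serum was methoxymated, trimethylsilylated and analysed by GC/MS with electron ionization in MRM mode; intensities expressed relative to the 30-min condition (=1).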

[9] = GC/MS of serum sample: time from blood collection to centrifugation (Table G); settings: blood collection to centrifugation; for Rate of increase or decrease: detection intensity relative to 1 at 15 minutes; for Increase or decrease: detection intensity
In short: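 Blood was held for varying times before centrifugation (room temperature, 3500 rpm, 5 min); serum was frozen, then methoxymated and trimethylsilylated for GC/MS with electron ionization in MRM mode. Values are detection intensities relative to the 15-minute collection-to-centrifugation condition, set as 1.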

Increase or decrease ([1]; detection intensity, blood collection to centrifugation, after 4 hours vs 15 minutes): Different from individual
Rate of increase or decrease (second value, decrease) ([1]; different from individual to individual, individuals with decrease, relative to 1 at 15 minutes, collection to centrifugation, after 4 hours): 0.64
Rate of increase or decrease (first value, increase) ([1]; different from individual to individual, individuals with increase, relative to 1 at 15 minutes, collection to centrifugation, after 4 hours): 1.48
Rate of increase or decrease [2]: 0.67
Increase or decrease [2]: Decrease
Compound: CCC(=O)C(=O)O [2-Ketobutyric acid]

Compound: N=C(N)NCCC[C@H](N)C(=O)O [Arginine]
Rate of increase or decrease ([3]; serum, GC/MS, freezing and thawing 10 times): 1.51
Increase or decrease ([3]; detection intensity, serum, GC/MS, freezing and thawing 10 times vs 2 times): Increase
Rate of increase or decrease ([4]; after 6 hours from blood collection to centrifugation, detection intensity relative to 1 at 15 minutes): 0.54
Increase or decrease ([4]; serum sample, LC/MS, detection intensity vs 15 minutes from blood collection to centrifugation): Decrease
Time when compound is affected ([4]; serum sample, LC/MS, time from blood collection to centrifugation, detection intensity changed by 30% or more vs 15 minutes): After 6 hours
Rate of increase or decrease ([5]; 6 times of freezing and thawing, detection intensity relative to 1 at 2 times): 0.64
Number of times when compound is affected ([5]; serum sample, LC/MS, detection intensity changed by 30% or more vs 2 times of freezing and thawing): 6 times
Increase or decrease ([5]; serum sample, LC/MS, detection intensity vs 2 times of freezing and thawing): Decrease
Rate of increase or decrease ([6]; detection intensity relative to 1 at 2 times, freezing and thawing 4 times): 1.34
Increase or decrease ([6]; detection intensity, freezing and thawing 4 times vs 2 times): Increase
Rate of increase or decrease ([7]; detection intensity relative to 1 at 15 minutes, after 6 hours): 0.69
Increase or decrease ([7]; detection intensity, after 6 hours vs 15 minutes): Decrease

Increase or decrease ([3]; detection intensity, serum, GC/MS, freezing and thawing 4 times vs 2 times): Increase; also recorded: Decrease
Rate of increase or decrease [2]: 1.42
Increase or decrease [2]: Increase
Rate of increase or decrease ([8]; detection intensity relative to 1 at 30 minutes, after 1 hour): 0.30
Increase or decrease ([8]; detection intensity, after 1 hour vs 30 minutes): Decrease
Rate of increase or decrease ([9]; after 4 hours): 3.17
Rate of increase or decrease ([9]; after 12 hours): 1.30
Increase or decrease ([9]; after 4 hours vs 15 minutes): Increase
Increase or decrease ([9]; after 12 hours vs 15 minutes): Decrease
Compound: O=C1CCNC(=O)N1 [Dihydrouracil]

Rate of increase or decrease ([3]; 10 times of freezing and thawing): 0.66
Number of times when compound is affected ([3]; serum sample, GC/MS, detection intensity changed by 30% or more vs 2 times of freezing and thawing): 10 times
Increase or decrease ([3]; serum sample, GC/MS, detection intensity vs 2 times of freezing and thawing): Decrease
Rate of increase or decrease [2]: 0.61
Increase or decrease [2]: Decrease
Rate of increase or decrease ([9]; after 4 hours): 1.40
Increase or decrease ([9]; after 4 hours vs 15 minutes): Increase
Compound: O=C(O)CO [Glycolic acid]
